The supplement of paper PMC10307832

Legend:
Assay in all cases: relative viability (nuclei count vs DMSO), 5 days (fraction); higher = more cells survive
Cediranib + Bortezomib = compound: COc1cc2c(Oc3ccc4[nH]c(C)cc4c3F)ncnc2cc1OCCCN1CCCC1 [Cediranib] + CC(C)C[C@H](NC(=O)[C@H](Cc1ccccc1)NC(=O)c1cnccn1)B(O)O [Bortezomib] (partner 0.002 µM)
Method in brief: (§1)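 Relative viability divides the nuclei count in treated wells by that in vehicle wells. Lung cancer cell lines were seeded in 1536-well plates, dosed by pin tool the next day, and fixed and stained after 5 days in one step with final 0.05% Triton X-100, 1% formaldehyde and 1 ug/ml Hoechst. Dosing was a single drug or a fixed anchor-drug dose plus five library-drug doses (not always all listed) in √10 steps, and values are medians of duplicate plates imaged at 4×.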

Cediranib + Linsitinib = compound: COc1cc2c(Oc3ccc4[nH]c(C)cc4c3F)ncnc2cc1OCCCN1CCCC1 [Cediranib] + C[C@]1(O)C[C@@H](c2nc(-c3ccc4ccc(-c5ccccc5)nc4c3)c3c(N)nccn32)C1 [Linsitinib] (partner 1 µM)
Method in brief: as §1

Decitabine + Alpelisib = compound: Nc1ncn([C@H]2C[C@H](O)[C@@H](CO)O2)c(=O)n1 [Decitabine] + Cc1nc(NC(=O)N2CCC[C@H]2C(N)=O)sc1-c1ccnc(C(C)(C)C(F)(F)F)c1 [Alpelisib] (partner 2 µM)
Method in brief: as §1

[1] = compound: O=C(C[C@H]1NCCC[C@@H]1O)Cn1cnc2cc(Br)c(Cl)cc2c1=O (racemic) [Halofuginone] + CS(=O)(=O)N1CCN(Cc2cc3nc(-c4cccc5[nH]ncc45)nc(N4CCOCC4)c3s2)CC1 [Pictilisib] (partner 1 µM)
Method in brief: as §1

Work on UMC-11 yielded a relative viability (Cediranib + Bortezomib; first compound 0.04 µM) of 1.02, a relative viability (Cediranib + Bortezomib; first compound 0.1265 µM) of 0.442 and a relative viability (Cediranib + Bortezomib; first compound 0.4 µM) of 0.683. For the same cell line, the relative viability (Cediranib + Bortezomib; first compound 1.265 µM) was 0.628, the relative viability (Cediranib + Bortezomib; first compound 4 µM) was 0.547 and the relative viability (Cediranib + Linsitinib; first compound 0.04 µM) was 1.06. The relative viability (Cediranib + Linsitinib; first compound 0.1265 µM) was 1.02, the relative viability (Cediranib + Linsitinib; first compound 0.4 µM) was 0.955 and the relative viability (Cediranib + Linsitinib; first compound 1.265 µM) was 0.957. It also gave a relative viability (Cediranib + Linsitinib; first compound 4 µM) of 0.934, a relative viability (Decitabine + Alpelisib; first compound 0.04 µM) of 0.848 and a relative viability (Decitabine + Alpelisib; first compound 0.1265 µM) of 0.535. For the same cell line, the relative viability (Decitabine + Alpelisib; first compound 0.4 µM) was 0.481, the relative viability (Decitabine + Alpelisib; first compound 1.265 µM) was 0.309 and the relative viability (Decitabine + Alpelisib; first compound 4 µM) was 0.281. For the same cell line, the relative viability ([1]; first compound 0.001 µM) was 0.9, the relative viability ([1]; first compound 0.003162 µM) was 0.76 and the relative viability ([1]; first compound 0.01 µM) was 0.772. It also gave a relative viability ([1]; first compound 0.03162 µM) of 0.758 and a relative viability ([1]; first compound 0.1 µM) of 0.648.
